{"source": "paper PMC8510591", "about": "“A comprehensive study of the basic formulation of supersaturated self-nanoemulsifying drug delivery systems (SNEDDS) of albendazolum” (Drug Delivery, 2021)", "key": {"[1]": {"test": "ABZ saturated solubility in the selected SNEDDS pre-concentrate and in water", "assay_type": "physicochemical", "protocol": "Excess ABZ was added to keep the glass vials containing 1 g of selected optimized SNEDDS preconcentrate (composed of 5% oleic acid, 65% tween 20, 30% PEG) airtight. The suspension was incubated at 30 ± 0.5 °C in a water bath for 72 h to attain equilibrium (Kang et al., [2012]). The suspension was then centrifuged for 15 min at 4000 rpm, after three days using an ultracentrifuge to eliminate the undissolved ABZ. This was then followed by filtration of the supernatant with a 0.22 µm membrane filter. After the desired dilution with solvent (methanol and 1 N HCl with 7:3) was achieved, the ultraviolet absorbance of the filtrate was measured using a UV spectrophotometer at 248 nm. Blanks of plain SNEDDS not containing any drugs diluted in the same ratio were used to cancel interference from the SNEDDS preconcentrate. The experiment was repeated thrice, and the average drug saturated solubility in mg/mL of the selected SNEDDS was calculated."}, "[2]": {"test": "ABZ solubility in oils, surfactants and co-surfactants", "assay_type": "physicochemical", "conditions": "37 °C, 72 h", "protocol": "The solubility tests were carried out on various oils, surfactants, and co-surfactants. The solubility determination method previously used by Meena et al. ([2012]) was employed. Excess ABZ was added to a volume of 1 g of the tested oil, surfactants, and co-surfactants, and placed in well-stoppered vials. The vials were agitated for 72 h (specified after determination of the equilibrium time beyond which the solubility is stable) at 37 ± 0.05 °C in a constant temperature water bath until equilibrium was attained. Subsequently, the vial's contents were centrifuged at 4000 rpm for 15 min using an ultracentrifuge to separate the insoluble ABZ. After being diluted with the solvent mixture (methanol and 1 N HCl with 7:3), the supernatants were filtered through a cellulose filter ([…]), and the ultraviolet absorbance of the filtrates was measured using the tested oil diluted with the solvent mixture as a blank to be 248 nm using a UV spectrophotometer. The materials used in the study included sunflower oil, Captex 300, PEG 300. PEG 400, soya oil, olive oil, crodamol oil, corn oil, Lauroglycol FCC, Cremophor EL, Solutol HS15, Labrafac lipophile WL1349, Capmul PG8, SPAN 20, Captex 355, Tween 80, Acrysol […], Labrasol, Cremophor RH40, Acrysol K140, Maisine, Sesame oil, Capmul MCM, Capryol PGMC, and propylene glycol. Results from each experiment were expressed as values in μg/mL."}}, "data": [{"smiles": "CCCSc1ccc2nc(NC(=O)OC)[nH]c2c1", "note": "[ABZ, Albendazolum]", "values": [{"measurement": "average increase of solubility, SNEDDS pre-concentrate vs water", "setting": "[1]; SNEDDS pre-concentrate relative to water", "result": 89, "unit": "fold"}, {"measurement": "solubility at 72 h", "setting": "[1]; SNEDDS preconcentrate 5% oleic acid, 65% tween 20, 30% PEG, 30 °C, 72 h", "result": 125, "unit": "µg/mL"}, {"measurement": "solubility", "setting": "[1]; water", "result": 1.4, "unit": "µg/mL"}, {"measurement": "Total solubility", "setting": "[2]; in Acrysol K140", "result": 46.60, "unit": "µg g^–1"}, {"measurement": "Total solubility", "setting": "[2]; in Acrysol K150", "result": 46.18, "unit": "µg g^–1"}, {"measurement": "Total solubility", "setting": "[2]; in Capmul MCM", "result": 5.59, "unit": "µg g^–1"}, {"measurement": "Total solubility", "setting": "[2]; in Capmul PG8", "result": 139.88, "unit": "µg g^–1"}, {"measurement": "Total solubility", "setting": "[2]; in Capryol PGMC", "result": 179.48, "unit": "µg g^–1"}, {"measurement": "Total solubility", "setting": "[2]; in Captex 300", "result": 40.23, "unit": "µg g^–1"}, {"measurement": "Total solubility", "setting": "[2]; in Captex 355", "result": 99.37, "unit": "µg g^–1"}, {"measurement": "Total solubility", "setting": "[2]; in Cremophor EL", "result": 179.76, "unit": "µg g^–1"}, {"measurement": "Total solubility", "setting": "[2]; in Cremophor RH40", "result": 46.72, "unit": "µg g^–1"}, {"measurement": "Total solubility", "setting": "[2]; in Crodamol oil", "result": 23.61, "unit": "µg g^–1"}, {"measurement": "Total solubility", "setting": "[2]; in Labrafac lipophile WL1349", "result": 96.78, "unit": "µg g^–1"}, {"measurement": "Total solubility", "setting": "[2]; in Labrasol", "result": 188.13, "unit": "µg g^–1"}, {"measurement": "Total solubility", "setting": "[2]; in Lauroglycol FCC", "result": 186.05, "unit": "µg g^–1"}, {"measurement": "Total solubility", "setting": "[2]; in Maisine", "result": 18.43, "unit": "µg g^–1"}, {"measurement": "Total solubility", "setting": "[2]; in Oleic acid", "result": 734.20, "unit": "µg g^–1"}, {"measurement": "Total solubility", "setting": "[2]; in Olive oil", "result": 0.79, "unit": "µg g^–1"}, {"measurement": "Total solubility", "setting": "[2]; in PEG 300", "result": 340.45, "unit": "µg g^–1"}, {"measurement": "Total solubility", "setting": "[2]; in PEG 600", "result": 498.90, "unit": "µg g^–1"}, {"measurement": "Total solubility", "setting": "[2]; in Propylene glycol", "result": 194.47, "unit": "µg g^–1"}, {"measurement": "Total solubility", "setting": "[2]; in SPAN 20", "result": 185.79, "unit": "µg g^–1"}, {"measurement": "Total solubility", "setting": "[2]; in Sesame oil", "result": 3.73, "unit": "µg g^–1"}, {"measurement": "Total solubility", "setting": "[2]; in Solutol HS15", "result": 193.44, "unit": "µg g^–1"}, {"measurement": "Total solubility", "setting": "[2]; in Soya oil", "result": 3.62, "unit": "µg g^–1"}, {"measurement": "Total solubility", "setting": "[2]; in Sunflower oil", "result": 0.43, "unit": "µg g^–1"}, {"measurement": "Total solubility", "setting": "[2]; in Tween 20", "result": 210.45, "unit": "µg g^–1"}, {"measurement": "Total solubility", "setting": "[2]; in Tween 80", "result": 172.19, "unit": "µg g^–1"}]}]}
